# Laboratory results as given in paper PMC3973950, “Synthesis of 5-arylidine amino-1,3,4-thiadiazol-2-[(N-substituted benzyol)]sulphonamides endowed with potent antioxidants and anticancer activity induces growth inhibition in HEK293, BT474 and NCI-H226 cells” (Medicinal Chemistry Research, 2013).
# Tested on: not listed separately
# Assay: In vitro cytotoxicity by MTT assay, HEK 293
# Format: cell-based, human
# Settings: human, HEK 293 cells, 0.005 μM, read-out: % cytotoxicity (100 − % cell survival) of HEK 293 cell line
# Description: (§1) The cancer cell line cultures of HEK 293 ([…]), BT474 (breast cancer cell line) and NCI-H226 (lung cancer) were obtained from Pasteur Institute of India, Coonoor, India, and were cultured in RPMI-1640 and 10 % heat-[…] New born calf serum with antibiotics [penicillin ([…]), streptomycin (100 μg/mL) and amphotericin B (25 μg/mL)]. The cells were maintained at 37 °C in a humidified atmosphere with 5 % CO2 and were subcultured twice a week.
# (§2) The monolayer cell culture (100 μL) was trypsinized, and the cell count was adjusted to […] using medium containing 10 % new born calf serum. To each well of the 96-well microtitre plate, the diluted cell suspension (approximately 10,000 cells) (0.1 mL) was added and kept for 24 h in incubator at 37 °C in 5 % CO2 atmosphere for cell monolayer formation. After 24 h, when a partial monolayer was formed at the bottom of the well, the supernatant was flicked off, the monolayer was washed once, and different drugs, i.e. synthesized compounds (100 μL), were added to the cells in microtitre plates. The plates were then incubated at 37 °C for 3 days in 5 % CO2 atmosphere, and microscopic examination was carried out and observations recorded every 24 h. After 72 h, the sample solution in the wells was flicked off; MTT dye ([…]) was added to each well; plates were gently shaken and incubated for 4 h at 37 °C in 5 % CO2 incubator. The supernatant was removed and propanol (50 μL) was added; the plates were gently shaken to solubilize the formed formazan. The absorbance was measured using a microplate reader at a wavelength of 490 nm (Edmondson et al., [1988]; Prasad et al., [2005]; Chiruvella et al., [2008]; Chang et al., [2007]).
row,SMILES,"cytotoxicity at 72 h, 0.005 µM [%]"
1,Nc1nnc(S(=O)(=O)NC(=O)c2ccccc2N)s1 [Compound 4b],41.5
2,Nc1ccc(C(=O)NS(=O)(=O)c2nnc(N)s2)cc1 [Compound 4c],36.3

# Same assay, conditions: human, HEK 293 cells, 0.015 μM, read-out: % cytotoxicity (100 − % cell survival) of HEK 293 cell line
row,SMILES,"cytotoxicity at 72 h, 0.015 µM [%]"
1,Nc1nnc(S(=O)(=O)NC(=O)c2ccccc2N)s1 [Compound 4b],47
2,Nc1ccc(C(=O)NS(=O)(=O)c2nnc(N)s2)cc1 [Compound 4c],37.9

# Same assay, conditions: human, HEK 293 cells, 0.045 μM, read-out: % cytotoxicity (100 − % cell survival) of HEK 293 cell line
row,SMILES,"cytotoxicity at 72 h, 0.045 µM [%]"
1,Nc1nnc(S(=O)(=O)NC(=O)c2ccccc2N)s1 [Compound 4b],50.4
2,Nc1ccc(C(=O)NS(=O)(=O)c2nnc(N)s2)cc1 [Compound 4c],38.2

# Same assay, conditions: human, HEK 293 cells, 0.13 μM, read-out: % cytotoxicity (100 − % cell survival) of HEK 293 cell line
row,SMILES,"cytotoxicity at 72 h, 0.13 µM [%]"
1,Nc1nnc(S(=O)(=O)NC(=O)c2ccccc2N)s1 [Compound 4b],53.6
2,Nc1ccc(C(=O)NS(=O)(=O)c2nnc(N)s2)cc1 [Compound 4c],39.1

# Same assay, conditions: human, HEK 293 cells, 0.41 μM, read-out: % cytotoxicity (100 − % cell survival) of HEK 293 cell line
row,SMILES,"cytotoxicity at 72 h, 0.41 µM [%]"
1,Nc1nnc(S(=O)(=O)NC(=O)c2ccccc2N)s1 [Compound 4b],57.6
2,Nc1ccc(C(=O)NS(=O)(=O)c2nnc(N)s2)cc1 [Compound 4c],39.9

# Same assay, conditions: human, HEK 293 cells, 1.23 μM, read-out: % cytotoxicity (100 − % cell survival) of HEK 293 cell line
row,SMILES,"cytotoxicity at 72 h, 1.23 µM [%]"
1,Nc1nnc(S(=O)(=O)NC(=O)c2ccccc2N)s1 [Compound 4b],58.1
2,Nc1ccc(C(=O)NS(=O)(=O)c2nnc(N)s2)cc1 [Compound 4c],40.7

# Same assay, conditions: human, HEK 293 cells, 3.7 μM, read-out: % cytotoxicity (100 − % cell survival) of HEK 293 cell line
row,SMILES,"cytotoxicity at 72 h, 3.7 µM [%]"
1,Nc1nnc(S(=O)(=O)NC(=O)c2ccccc2N)s1 [Compound 4b],59.7
2,Nc1ccc(C(=O)NS(=O)(=O)c2nnc(N)s2)cc1 [Compound 4c],42.1

# Same assay, conditions: human, HEK 293 cells, 11.11 μM, read-out: % cytotoxicity (100 − % cell survival) of HEK 293 cell line
row,SMILES,"cytotoxicity at 72 h, 11.11 µM [%]"
1,Nc1nnc(S(=O)(=O)NC(=O)c2ccccc2N)s1 [Compound 4b],62.3
2,Nc1ccc(C(=O)NS(=O)(=O)c2nnc(N)s2)cc1 [Compound 4c],46.5

# Same assay, conditions: human, HEK 293 cells, 33.33 μM, read-out: % cytotoxicity (100 − % cell survival) of HEK 293 cell line
row,SMILES,"cytotoxicity at 72 h, 33.33 µM [%]"
1,Nc1nnc(S(=O)(=O)NC(=O)c2ccccc2N)s1 [Compound 4b],63.1
2,Nc1ccc(C(=O)NS(=O)(=O)c2nnc(N)s2)cc1 [Compound 4c],47.8

# Same assay, conditions: human, HEK 293 cells, 100 μM, read-out: % cytotoxicity (100 − % cell survival) of HEK 293 cell line
row,SMILES,"cytotoxicity at 72 h, 100 µM [%]"
1,Nc1nnc(S(=O)(=O)NC(=O)c2ccccc2N)s1 [Compound 4b],65.4
2,Nc1ccc(C(=O)NS(=O)(=O)c2nnc(N)s2)cc1 [Compound 4c],49.1

# Tested on: BT474 (breast cancer cell line)
# Assay: In vitro cytotoxicity by MTT assay, BT474
# Format: cell-based
# Settings: Homo sapiens, BT-474, 0.005 μM, 72 h, read-out: % cytotoxicity (100 − % cell survival) of BT474 cell line
# Description: as §1, §2
row,SMILES,cytotoxicity at 0.005 µM [%]
1,Nc1nnc(S(=O)(=O)NC(=O)c2ccccc2N)s1 [Compound 4b],16.2
2,Nc1ccc(C(=O)NS(=O)(=O)c2nnc(N)s2)cc1 [Compound 4c],30.6

# Same assay, conditions: Homo sapiens, BT-474, 0.015 μM, 72 h, read-out: % cytotoxicity (100 − % cell survival) of BT474 cell line
row,SMILES,cytotoxicity at 0.015 µM [%]
1,Nc1nnc(S(=O)(=O)NC(=O)c2ccccc2N)s1 [Compound 4b],16.6
2,Nc1ccc(C(=O)NS(=O)(=O)c2nnc(N)s2)cc1 [Compound 4c],32.1

# Same assay, conditions: Homo sapiens, BT-474, 0.045 μM, 72 h, read-out: % cytotoxicity (100 − % cell survival) of BT474 cell line
row,SMILES,cytotoxicity at 0.045 µM [%]
1,Nc1nnc(S(=O)(=O)NC(=O)c2ccccc2N)s1 [Compound 4b],17.4
2,Nc1ccc(C(=O)NS(=O)(=O)c2nnc(N)s2)cc1 [Compound 4c],34.2

# Same assay, conditions: Homo sapiens, BT-474, 0.13 μM, 72 h, read-out: % cytotoxicity (100 − % cell survival) of BT474 cell line
row,SMILES,cytotoxicity at 0.13 µM [%]
1,Nc1nnc(S(=O)(=O)NC(=O)c2ccccc2N)s1 [Compound 4b],18
2,Nc1ccc(C(=O)NS(=O)(=O)c2nnc(N)s2)cc1 [Compound 4c],35.5

# Same assay, conditions: Homo sapiens, BT-474, 0.41 μM, 72 h, read-out: % cytotoxicity (100 − % cell survival) of BT474 cell line
row,SMILES,cytotoxicity at 0.41 µM [%]
1,Nc1nnc(S(=O)(=O)NC(=O)c2ccccc2N)s1 [Compound 4b],18.1
2,Nc1ccc(C(=O)NS(=O)(=O)c2nnc(N)s2)cc1 [Compound 4c],36.3

# Same assay, conditions: Homo sapiens, BT-474, 1.23 μM, 72 h, read-out: % cytotoxicity (100 − % cell survival) of BT474 cell line
row,SMILES,cytotoxicity at 1.23 µM [%]
1,Nc1nnc(S(=O)(=O)NC(=O)c2ccccc2N)s1 [Compound 4b],19.9
2,Nc1ccc(C(=O)NS(=O)(=O)c2nnc(N)s2)cc1 [Compound 4c],37.6

# Same assay, conditions: Homo sapiens, BT-474, 3.7 μM, 72 h, read-out: % cytotoxicity (100 − % cell survival) of BT474 cell line
row,SMILES,cytotoxicity at 3.7 µM [%]
1,Nc1nnc(S(=O)(=O)NC(=O)c2ccccc2N)s1 [Compound 4b],20.5
2,Nc1ccc(C(=O)NS(=O)(=O)c2nnc(N)s2)cc1 [Compound 4c],38.8

# Same assay, conditions: Homo sapiens, BT-474, 11.11 μM, 72 h, read-out: % cytotoxicity (100 − % cell survival) of BT474 cell line
row,SMILES,cytotoxicity at 11.11 µM [%]
1,Nc1nnc(S(=O)(=O)NC(=O)c2ccccc2N)s1 [Compound 4b],22.2
2,Nc1ccc(C(=O)NS(=O)(=O)c2nnc(N)s2)cc1 [Compound 4c],39.4

# Same assay, conditions: Homo sapiens, BT-474, 33.33 μM, 72 h, read-out: % cytotoxicity (100 − % cell survival) of BT474 cell line
row,SMILES,cytotoxicity at 33.33 µM [%]
1,Nc1nnc(S(=O)(=O)NC(=O)c2ccccc2N)s1 [Compound 4b],23.3
2,Nc1ccc(C(=O)NS(=O)(=O)c2nnc(N)s2)cc1 [Compound 4c],40.3

# Same assay, conditions: Homo sapiens, BT-474, 100 μM, 72 h, read-out: % cytotoxicity (100 − % cell survival) of BT474 cell line
row,SMILES,cytotoxicity at 100 µM [%]
1,Nc1nnc(S(=O)(=O)NC(=O)c2ccccc2N)s1 [Compound 4b],26.7
2,Nc1ccc(C(=O)NS(=O)(=O)c2nnc(N)s2)cc1 [Compound 4c],41.4

# Tested on: not listed separately
# Assay: In vitro cytotoxicity by MTT assay, NCI-H226
# Format: cell-based
# Settings: human, NCI-H226 lung cancer cells, 0.015 μM, read-out: % Cytotoxicity (100 − % cell survival) of NCI-H226 cell line
# Description: as §1, §2
row,SMILES,"cytotoxicity at 72 h, 0.015 µM [%]"
1,Nc1nnc(S(=O)(=O)NC(=O)c2ccccc2N)s1 [Compound 4b],32.9
2,Nc1ccc(C(=O)NS(=O)(=O)c2nnc(N)s2)cc1 [Compound 4c],38.2

# Tested on: NCI-H226 (lung cancer cell line)
# Assay: In vitro cytotoxicity by MTT assay, NCI-H226
# Format: cell-based
# Settings: Homo sapiens, NCI-H226, 0.005 μM, 72 h, read-out: % Cytotoxicity (100 − % cell survival) of NCI-H226 cell line
# Description: as §1, §2
row,SMILES,cytotoxicity at 0.005 µM [%]
1,Nc1nnc(S(=O)(=O)NC(=O)c2ccccc2N)s1 [Compound 4b],32.1
2,Nc1ccc(C(=O)NS(=O)(=O)c2nnc(N)s2)cc1 [Compound 4c],37.6

# Same assay, conditions: Homo sapiens, NCI-H226, 0.045 μM, 72 h, read-out: % Cytotoxicity (100 − % cell survival) of NCI-H226 cell line
row,SMILES,cytotoxicity at 0.045 µM [%]
1,Nc1nnc(S(=O)(=O)NC(=O)c2ccccc2N)s1 [Compound 4b],33.5
2,Nc1ccc(C(=O)NS(=O)(=O)c2nnc(N)s2)cc1 [Compound 4c],38.9

# Same assay, conditions: Homo sapiens, NCI-H226, 0.13 μM, 72 h, read-out: % Cytotoxicity (100 − % cell survival) of NCI-H226 cell line
row,SMILES,cytotoxicity at 0.13 µM [%]
1,Nc1nnc(S(=O)(=O)NC(=O)c2ccccc2N)s1 [Compound 4b],34
2,Nc1ccc(C(=O)NS(=O)(=O)c2nnc(N)s2)cc1 [Compound 4c],39.3

# Same assay, conditions: Homo sapiens, NCI-H226, 0.41 μM, 72 h, read-out: % Cytotoxicity (100 − % cell survival) of NCI-H226 cell line
row,SMILES,cytotoxicity at 0.41 µM [%]
1,Nc1nnc(S(=O)(=O)NC(=O)c2ccccc2N)s1 [Compound 4b],34.7
2,Nc1ccc(C(=O)NS(=O)(=O)c2nnc(N)s2)cc1 [Compound 4c],42.2

# Same assay, conditions: Homo sapiens, NCI-H226, 1.23 μM, 72 h, read-out: % Cytotoxicity (100 − % cell survival) of NCI-H226 cell line
row,SMILES,cytotoxicity at 1.23 µM [%]
1,Nc1nnc(S(=O)(=O)NC(=O)c2ccccc2N)s1 [Compound 4b],35.1
2,Nc1ccc(C(=O)NS(=O)(=O)c2nnc(N)s2)cc1 [Compound 4c],45.4

# Same assay, conditions: Homo sapiens, NCI-H226, 3.7 μM, 72 h, read-out: % Cytotoxicity (100 − % cell survival) of NCI-H226 cell line
row,SMILES,cytotoxicity at 3.7 µM [%]
1,Nc1nnc(S(=O)(=O)NC(=O)c2ccccc2N)s1 [Compound 4b],36
2,Nc1ccc(C(=O)NS(=O)(=O)c2nnc(N)s2)cc1 [Compound 4c],47.2

# Same assay, conditions: Homo sapiens, NCI-H226, 11.11 μM, 72 h, read-out: % Cytotoxicity (100 − % cell survival) of NCI-H226 cell line
row,SMILES,cytotoxicity at 11.11 µM [%]
1,Nc1nnc(S(=O)(=O)NC(=O)c2ccccc2N)s1 [Compound 4b],36.3
2,Nc1ccc(C(=O)NS(=O)(=O)c2nnc(N)s2)cc1 [Compound 4c],49.1

# Same assay, conditions: Homo sapiens, NCI-H226, 33.33 μM, 72 h, read-out: % Cytotoxicity (100 − % cell survival) of NCI-H226 cell line
row,SMILES,cytotoxicity at 33.33 µM [%]
1,Nc1nnc(S(=O)(=O)NC(=O)c2ccccc2N)s1 [Compound 4b],37.2
2,Nc1ccc(C(=O)NS(=O)(=O)c2nnc(N)s2)cc1 [Compound 4c],51.2

# Same assay, conditions: Homo sapiens, NCI-H226, 100 μM, 72 h, read-out: % Cytotoxicity (100 − % cell survival) of NCI-H226 cell line
row,SMILES,cytotoxicity at 100 µM [%]
1,Nc1nnc(S(=O)(=O)NC(=O)c2ccccc2N)s1 [Compound 4b],39.5
2,Nc1ccc(C(=O)NS(=O)(=O)c2nnc(N)s2)cc1 [Compound 4c],54.2
